{"source": "paper PMC10057977", "about": "“Use of In Vivo Imaging and Physiologically-Based Kinetic Modelling to Predict Hepatic Transporter Mediated Drug–Drug Interactions in Rats” (Pharmaceutics, 2023)", "key": {"rNtcp": {"test_system": "rNtcp", "design": "method as in PMID 16258024, PMID 29891589, PMID 21415249, PMID 11883641, PMID 15550721", "conditions": "in vitro; cited from earlier work"}, "rOatp1b": {"biological_target": "T1, rOatp1b (Rattus norvegicus, UniProt Q9QZX8)", "T1 construct": "from tissue; host or cells: liver of living male Wistar rats (Charles River Laboratories)", "T1 sequence (Q9QZX8 1-687)": "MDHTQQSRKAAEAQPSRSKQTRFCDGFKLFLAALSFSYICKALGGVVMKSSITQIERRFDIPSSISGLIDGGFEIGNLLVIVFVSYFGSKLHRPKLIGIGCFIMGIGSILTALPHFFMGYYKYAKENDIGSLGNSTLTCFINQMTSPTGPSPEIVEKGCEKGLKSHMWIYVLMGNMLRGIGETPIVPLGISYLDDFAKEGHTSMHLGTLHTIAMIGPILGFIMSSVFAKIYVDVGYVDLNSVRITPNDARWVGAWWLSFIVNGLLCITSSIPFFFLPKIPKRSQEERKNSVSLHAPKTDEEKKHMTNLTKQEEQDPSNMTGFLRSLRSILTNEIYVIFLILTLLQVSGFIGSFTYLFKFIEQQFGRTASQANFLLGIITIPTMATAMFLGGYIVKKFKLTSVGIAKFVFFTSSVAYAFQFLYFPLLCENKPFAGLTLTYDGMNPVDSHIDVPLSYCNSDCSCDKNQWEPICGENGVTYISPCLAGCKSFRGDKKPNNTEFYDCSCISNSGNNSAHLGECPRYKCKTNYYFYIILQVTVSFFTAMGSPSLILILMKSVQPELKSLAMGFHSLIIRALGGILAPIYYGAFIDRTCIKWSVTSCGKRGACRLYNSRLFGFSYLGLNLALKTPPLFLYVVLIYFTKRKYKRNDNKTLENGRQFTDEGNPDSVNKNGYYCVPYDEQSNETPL", "assay_type": "in vivo", "conditions": "for Simple Effect Size (95% CI) K^trans: gadoxetate hepatic plasma clearance; for Simple Effect Size (95% CI) K^trans / Simple Effect Size (95% CI) khe: control − treatment, positive = decrease; for Simple Effect Size (95% CI) khe: gadoxetate hepatic uptake", "description": "The tracer-kinetic model was developed to enable estimation of rate constants of hepatobiliary efflux from DCE-MRI profiles in individual animals. In this approach, the liver was assumed to consist of two compartments, the extracellular space (e) and the hepatocytes (h). Since water exchanges rapidly between those spaces, the change in relaxation rate was a weighted average (Equation (4)). (4) ΔR1(t)=r1,e·ve·ce(t)+r1,h·vh·ch(t)\nThe proportionality constant, r1,τ [L⋅mmol^−1⋅s^−1] , is the relaxivity of the contrast agent for the compartment τ (extracellular space, e or hepatocytes, h) at the respective field strength, while vτ [mL/mL tissue] is the volume fraction of the compartment τ . Previously measured ex vivo r1,tau values for gadoxetate were used in this work, as per. The underlying assumptions of the PBPK and tracer-kinetic models, relating to physiological volumes and perfusion, are consistent, despite different parameterizations according to the purpose of each model. For example, Vliv,extr in the PBPK model is defined as an absolute volume (units = L; sum of liver plasma and interstitial volumes), while in the tracer-kinetic model, ve is a volume fraction (dimensionless), defined as Vliv,extr/Vliver , where Vliver is the total liver volume. While some analogy can be drawn between CLactive […], and CLbiliary and kbh, the interpretations are distinct. For example, the operating concentrations of the PBPK parameters CLactive […], and CLbiliary are the unbound concentrations of gadoxetate in plasma and hepatocytes, while the tracer-kinetic model is parameterized with respect to the total concentration of gadoxetate.\nSince ce(t) is the input to the hepatocytes, and no backflux from hepatocytes to extracellular space is assumed, Equation (5) can be derived. (5) vh·ch(t)=e^−t/Th∗khe·ce(t) where Th is the mean transit time of gadoxetate in the hepatocytes [min] , and * is convolution. The extracellular space is assumed to be in equilibrium with the blood pool and therefore the concentration ce(t) is proportional to the concentration cp(t) in the plasma of the feeding artery, i.e., ce(t) = (1 − E)·cp(t), where E is the extraction fraction of gadoxetate in the liver. Combining this assumption with Equations (4) and (5), and using (1 − E)·khe = E·Fp, with Fp being the apparent plasma flow into the liver [mL/min/mL tissue volume] , gives Equation (6), the operational equation for gadoxetate DCE-MRI in the liver. (6) ΔR1(t)=(1−E)·ve·r1,p·cp(t)+E·Fp·r1,h ·e^−t/Th ∗cp(t)\nThe rate constants were derived as K^trans = E·Fp, khe = E·Fp/(1 − E), and kbh = vh/Th, with a literature value for vh. The plasma concentrations cp(t) were not reliably measured in small animals due to the small diameter of the main vessels compared to the resolution of the measurement. […] Therefore, the source term cp(t) was derived from a two-compartment pharmacokinetic model for gadoxetate (see Supplementary Material, Section S5), and a step function as input in the blood compartment. The parameters kbh and khe were fitted to the liver data using a model implementation in Python. For each rat considered in these studies, the rate constants K^trans, khe, and kbh were calculated, in both control and inhibitory phases. […] Statistical significance was assessed through a two-sided paired t-test, with p < 0.05 considered significant."}, "MRP2": {"test_system": "MRP2", "conditions": "in vitro; bracket not explained in the table; ref 30,43-55 and in-house data from Merck & Co.; cited from earlier work"}, "rMrp2": {"biological_target": "rMrp2 (Rattus norvegicus, UniProt Q63120)", "sequence (Q63120 whole entry)": "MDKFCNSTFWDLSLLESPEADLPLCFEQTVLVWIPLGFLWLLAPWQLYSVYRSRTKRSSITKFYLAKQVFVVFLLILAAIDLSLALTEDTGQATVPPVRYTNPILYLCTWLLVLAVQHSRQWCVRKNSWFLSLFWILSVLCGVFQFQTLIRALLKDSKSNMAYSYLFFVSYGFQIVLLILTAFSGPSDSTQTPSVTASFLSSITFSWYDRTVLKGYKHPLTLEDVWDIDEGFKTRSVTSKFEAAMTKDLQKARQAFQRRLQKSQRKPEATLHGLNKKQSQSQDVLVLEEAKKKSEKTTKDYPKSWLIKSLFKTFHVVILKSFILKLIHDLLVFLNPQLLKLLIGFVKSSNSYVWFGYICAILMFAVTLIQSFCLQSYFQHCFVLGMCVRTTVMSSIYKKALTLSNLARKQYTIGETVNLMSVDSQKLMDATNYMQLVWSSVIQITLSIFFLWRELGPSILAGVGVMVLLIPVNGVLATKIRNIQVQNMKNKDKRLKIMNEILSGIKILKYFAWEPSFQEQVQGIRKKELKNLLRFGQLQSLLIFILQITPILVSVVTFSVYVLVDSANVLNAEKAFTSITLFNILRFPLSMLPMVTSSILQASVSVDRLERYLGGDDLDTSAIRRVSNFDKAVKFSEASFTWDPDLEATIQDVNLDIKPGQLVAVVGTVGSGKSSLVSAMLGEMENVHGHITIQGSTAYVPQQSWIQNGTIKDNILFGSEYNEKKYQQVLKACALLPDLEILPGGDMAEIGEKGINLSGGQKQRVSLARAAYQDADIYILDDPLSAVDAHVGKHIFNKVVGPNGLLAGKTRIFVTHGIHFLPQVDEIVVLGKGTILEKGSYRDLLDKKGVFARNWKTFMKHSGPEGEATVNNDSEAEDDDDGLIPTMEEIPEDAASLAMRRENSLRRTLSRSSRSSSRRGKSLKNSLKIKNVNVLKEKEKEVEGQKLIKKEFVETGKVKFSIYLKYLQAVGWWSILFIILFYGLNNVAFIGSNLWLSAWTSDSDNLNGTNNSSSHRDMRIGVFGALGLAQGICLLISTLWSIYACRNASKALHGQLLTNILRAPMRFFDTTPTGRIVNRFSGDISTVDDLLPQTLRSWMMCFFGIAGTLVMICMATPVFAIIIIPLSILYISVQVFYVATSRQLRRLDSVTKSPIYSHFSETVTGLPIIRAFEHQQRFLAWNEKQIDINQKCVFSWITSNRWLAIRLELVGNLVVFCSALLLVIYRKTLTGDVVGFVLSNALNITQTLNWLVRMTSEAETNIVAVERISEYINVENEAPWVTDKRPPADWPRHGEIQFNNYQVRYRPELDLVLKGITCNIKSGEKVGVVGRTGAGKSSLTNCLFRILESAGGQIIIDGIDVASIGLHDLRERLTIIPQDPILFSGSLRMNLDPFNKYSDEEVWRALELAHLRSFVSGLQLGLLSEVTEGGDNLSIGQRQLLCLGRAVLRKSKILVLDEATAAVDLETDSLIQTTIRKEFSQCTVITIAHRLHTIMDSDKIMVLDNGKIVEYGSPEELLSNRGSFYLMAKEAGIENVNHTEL", "design": "method as in PMID 16258024, PMID 29891589, PMID 21415249, PMID 11883641, PMID 15550721", "conditions": "in vitro; NI = reported not to inhibit the transporter; cited from earlier work"}, "OATP1B": {"test_system": "OATP1B", "design": "method as in supplement [18]", "conditions": "plasma AUC ratio; ref supplement [18]; cited from earlier work"}, "[1]": {"conditions": "unbound concentration ratio between hepatocyte and plasma; ref supplement [39] rifampicin, [40] asunaprevir, [41] bosentan, ciclosporin, ketoconazole; cited from earlier work"}, "NTCP": {"test_system": "NTCP", "design": "method as in earlier work", "conditions": "in vitro; ref 30,43-55 and in-house data from Merck & Co.; cited from earlier work"}, "[2]": {"design": "method as in supplement [33]", "conditions": "clinical; ref supplement [33]; cited from earlier work"}, "[3]": {"conditions": "in vivo; cited from earlier work"}, "[4]": {"conditions": "pioglitazone 0.4 mg/kg iv, site E"}}, "note": "Like-named read-outs stand apart in the source and are kept apart here.", "data": [{"smiles": "C=C[C@@H]1C[C@]1(NC(=O)[C@@H]1C[C@@H](Oc2ncc(OC)c3ccc(Cl)cc23)CN1C(=O)[C@@H](NC(=O)OC(C)(C)C)C(C)(C)C)C(=O)NS(=O)(=O)C1CC1", "note": "[Asunaprevir]", "values": [{"measurement": "IC50", "setting": "rNtcp", "value": 0.6, "unit": "µM"}, {"measurement": "Simple Effect Size (95% CI) K^trans", "setting": "rOatp1b; asunaprevir 5 mg/kg iv, site E", "value": "0.24 (−0.01, 0.48) mL/min/mL liver"}, {"measurement": "Simple Effect Size (95% CI) khe", "setting": "rOatp1b; asunaprevir 5 mg/kg iv, site E", "value": "2.34 (−0.92, 5.60) mL/min/mL liver"}, {"measurement": "IC50", "setting": "MRP2", "value": 4, "unit": "µM"}, {"measurement": "IC50", "setting": "rMrp2", "value": 11, "unit": "µM"}, {"measurement": "AUCR of rosuvastatin (presence vs absence of inhibitor)", "setting": "OATP1B", "value": "< 2", "unit": "fold"}, {"measurement": "Kpuu", "setting": "[1]", "value": 11.5}]}, {"smiles": "COc1ccccc1Oc1c(NS(=O)(=O)c2ccc(C(C)(C)C)cc2)nc(-c2ncccn2)nc1OCCO", "note": "[Bosentan]", "values": [{"measurement": "IC50", "setting": "rNtcp", "value": 0.4, "unit": "µM"}, {"measurement": "Simple Effect Size (95% CI) K^trans", "setting": "rOatp1b; bosentan 2 mg/kg iv, site G1, subjects 3, 4, 6 excluded", "value": "0.28 (−0.32, 0.88) mL/min/mL liver"}, {"measurement": "Simple Effect Size (95% CI) K^trans", "setting": "rOatp1b; bosentan 4–6 mg/kg iv, site G2", "value": "0.07 (−0.12, 0.26) mL/min/mL liver"}, {"measurement": "Simple Effect Size (95% CI) khe", "setting": "rOatp1b; bosentan 2 mg/kg iv, site G1, subjects 3, 4, 6 excluded, khe physiologically implausible", "value": "−54.22 (−197.97, 89.53) mL/min/mL liver"}, {"measurement": "Simple Effect Size (95% CI) khe", "setting": "rOatp1b; bosentan 4–6 mg/kg iv, site G2", "value": "1.07 (−1.13, 3.26) mL/min/mL liver"}, {"measurement": "IC50", "setting": "MRP2", "value": "> 100", "unit": "µM"}, {"measurement": "IC50", "setting": "NTCP", "value": 18, "unit": "µM"}, {"measurement": "treated patients with mild liver dysfunction", "setting": "[2]", "value": "about 10%"}, {"measurement": "Kpuu", "setting": "[1]", "value": 3}]}, {"smiles": "CCc1ccc(CCOc2ccc(CC3SC(=O)NC3=O)cc2)nc1", "note": "(stereo not shown) [Pioglitazone]", "values": [{"measurement": "Simple Effect Size (95% CI) K^trans", "setting": "rOatp1b; [4]", "value": "0.13 (−0.05, 0.32) mL/min/mL liver"}, {"measurement": "Simple Effect Size (95% CI) khe", "setting": "rOatp1b; [4]", "value": "1.21 (−0.10, 2.51) mL/min/mL liver"}, {"measurement": "IC50", "setting": "MRP2", "value": "> 133", "unit": "µM"}]}, {"smiles": "CO[C@H]1/C=C/O[C@@]2(C)Oc3c(C)c(O)c4c(O)c(c(/C=N/N5CCN(C)CC5)c(O)c4c3C2=O)NC(=O)/C(C)=C\\C=C\\[C@H](C)[C@H](O)[C@@H](C)[C@@H](O)[C@@H](C)[C@H](OC(C)=O)[C@@H]1C", "note": "[Rifampicin]", "values": [{"measurement": "Simple Effect Size (95% CI) khe", "setting": "rOatp1b; * p < 0.05, rifampicin 2 mg/kg iv, site G2", "value": 7.20, "unit": "mL/min/mL liver"}, {"measurement": "IC50", "setting": "MRP2", "value": 55, "unit": "µM"}, {"measurement": "Ki", "setting": "MRP2", "value": 24.3, "unit": "µM"}, {"measurement": "IC50", "setting": "NTCP", "value": 277, "unit": "µM"}, {"measurement": "IC50", "setting": "rMrp2", "value": "20 to 53", "unit": "µM"}]}, {"smiles": "CCOc1ccc(C[C@@H](CN(CCN(CC(=O)[O-])CC(=O)[O-])CC(=O)[O-])N(CC(=O)[O-])CC(=O)[O-])cc1.[Gd+3].[H+].[H+]", "note": "[gadoxetate, Gadoxetate]", "values": [{"measurement": "hepatic extraction ratio (E)", "setting": "rOatp1b; rat, in vivo", "value": "> 0.95"}, {"measurement": "khe, new value in unified units", "setting": "rOatp1b; rat, in vivo", "value": 11.1, "unit": "mL/min"}, {"measurement": "khe, original value", "setting": "rOatp1b; rat, in vivo", "value": 1.31, "unit": "mL/ min/ mL tissue volume"}, {"measurement": "hepatic extraction", "setting": "[3]", "value": "approx. 20%"}]}]}
